Laboratory results from ChEMBL document CHEMBL1201862, “PubChem BioAssay data set” (2004).
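Cells were grown in 96-well plates and exposed to each compound for 48 hours at five concentrations; endpoints were interpolated linearly between bracketing concentrations, or set to the highest concentration if not reached. Abbreviation: GI50, concentration required for 50% inhibition of growth.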 Activity calls are given as the source filed them. Rule as the data show it: active = GI50 up to about 1.1 µM and inactive = higher.

Assays:
Assay in all cases: NCI anticancer screen, dose series, 48 h
CCRF-CEM = tested on: CCRF-CEM
NCI-H522 = tested on: NCI-H522
HL-60 = tested on: HL-60
UO-31 = tested on: UO-31
NCI-H226 = tested on: NCI-H226
UACC-257 = tested on: UACC-257
SF-539 = tested on: SF-539
SW-620 = tested on: SW-620
KM-20L2 = tested on: KM-20L2
LXFL 529 = tested on: LXFL 529
SK-OV-3 = tested on: SK-OV-3
HCT-15 = tested on: HCT-15
ACHN = tested on: ACHN
786-0 = tested on: 786-0
SNB-19 = tested on: SNB-19
SK-MEL-5 = tested on: SK-MEL-5
M19-MEL = tested on: M19-MEL
IGROV-1 = tested on: IGROV-1
HCC 2998 = tested on: HCC 2998
RPMI-8226 = tested on: RPMI-8226
SK-MEL-2 = tested on: SK-MEL-2
M14 = tested on: M14
COLO 205 = tested on: COLO 205
U-251 = tested on: U-251
SF-268 = tested on: SF-268
UACC-62 = tested on: UACC-62
EKVX = tested on: EKVX
HOP-92 = tested on: HOP-92
NCI-H23 = tested on: NCI-H23
XF498 = tested on: XF498
OVCAR-4 = tested on: OVCAR-4
HT-29 = tested on: HT-29
K562 = tested on: K562
TK-10 = tested on: TK-10
OVCAR-5 = tested on: OVCAR-5
MOLT-4 = tested on: MOLT-4
OVCAR-3 = tested on: OVCAR-3
SN12C = tested on: SN12C
HOP-62 = tested on: HOP-62
NCI-H460 = tested on: NCI-H460
SF-295 = tested on: SF-295
SK-MEL-28 = tested on: SK-MEL-28
KM12 = tested on: KM12
A549 = tested on: A549
Malme-3M = tested on: Malme-3M
HCT-116 = tested on: HCT-116
OVCAR-8 = tested on: OVCAR-8
SR = tested on: SR
LOX IMVI = tested on: LOX IMVI
MDA-MB-435 = tested on: MDA-MB-435
MDA-MB-231 = tested on: MDA-MB-231
MDA-N = tested on: MDA-N
RXF 393 = tested on: RXF 393
SNB-75 = tested on: SNB-75
Hs-578T = tested on: Hs-578T
MCF7 = tested on: MCF7
NCI/ADR-RES = tested on: NCI/ADR-RES
T47D = tested on: T47D
DU-145 = tested on: DU-145
BT-549 = tested on: BT-549
CAKI-1 = tested on: CAKI-1
PC-3 = tested on: PC-3
A498 = tested on: A498

N#Cc1ccccc1NC(=O)/C(=N\N)C(C(=O)c1ccncc1)C1OC(=O)c2ccccc21 (stereo not drawn)
GI50 (CCRF-CEM): > 100000 nM (inactive) | GI50 (NCI-H522): > 100000 nM (inactive) | GI50 (HL-60): > 100000 nM (inactive) | GI50 (UO-31): > 100000 nM (inactive) | GI50 (NCI-H226): > 100000 nM (inactive) | GI50 (UACC-257): > 100000 nM (inactive) | GI50 (SF-539): > 100000 nM (inactive) | GI50 (SW-620): > 100000 nM (inactive) | GI50 (KM-20L2): > 100000 nM (inactive) | GI50 (LXFL 529): > 100000 nM (inactive) | GI50 (SK-OV-3): > 100000 nM (inactive) | GI50 (HCT-15): > 100000 nM | GI50 (ACHN): > 100000 nM (inactive) | GI50 (786-0): > 100000 nM (inactive) | GI50 (SNB-19): > 100000 nM (inactive) | GI50 (SK-MEL-5): > 100000 nM (inactive) | GI50 (M19-MEL): > 100000 nM (inactive) | GI50 (IGROV-1): > 100000 nM (inactive) | GI50 (HCC 2998): > 100000 nM (inactive) | GI50 (RPMI-8226): > 100000 nM (inactive) | GI50 (SK-MEL-2): > 100000 nM (inactive) | GI50 (M14): > 100000 nM (inactive) | GI50 (COLO 205): > 100000 nM (inactive) | GI50 (U-251): > 100000 nM (inactive) | GI50 (SF-268): > 100000 nM (inactive) | GI50 (UACC-62): > 100000 nM (inactive) | GI50 (EKVX): > 100000 nM (inactive) | GI50 (HOP-92): > 100000 nM (inactive) | GI50 (NCI-H23): > 100000 nM (inactive) | GI50 (XF498): > 100000 nM (inactive) | GI50 (OVCAR-4): > 100000 nM (inactive) | GI50 (HT-29): > 100000 nM (inactive) | GI50 (K562): > 100000 nM (inactive) | GI50 (TK-10): > 100000 nM (inactive) | GI50 (OVCAR-5): > 100000 nM (inactive) | GI50 (MOLT-4): > 100000 nM (inactive) | GI50 (OVCAR-3): > 100000 nM (inactive) | GI50 (SN12C): > 100000 nM (inactive) | GI50 (HOP-62): > 100000 nM (inactive) | GI50 (NCI-H460): > 100000 nM (inactive) | GI50 (SF-295): > 100000 nM (inactive) | GI50 (SK-MEL-28): > 100000 nM (inactive) | GI50 (KM12): > 100000 nM (inactive) | GI50 (A549): > 100000 nM (inactive) | GI50 (Malme-3M): > 100000 nM (inactive) | GI50 (HCT-116): > 100000 nM (inactive) | GI50 (OVCAR-8): > 100000 nM (inactive) | GI50 (SR): > 100000 nM (inactive) | GI50 (LOX IMVI): > 100000 nM (inactive)

CN(C)/C=C/c1c2c(nc3ccccc13)C(=O)c1cccnc1C2=O
GI50 (CCRF-CEM): 1840 nM (inactive) | GI50 (NCI-H522): 315 nM (active) | GI50 (HL-60): 299 nM (active) | GI50 (UO-31): 557 nM (active) | GI50 (NCI-H226): 292 nM (active) | GI50 (UACC-257): 668 nM (active) | GI50 (MDA-MB-435): 548 nM (active) | GI50 (SF-539): 300 nM (active) | GI50 (SW-620): 244 nM (active) | GI50 (SK-OV-3): 792 nM (active) | GI50 (HCT-15): 90.8 nM | GI50 (ACHN): 217 nM (active) | GI50 (786-0): 226 nM (active) | GI50 (SNB-19): 562 nM (active) | GI50 (MDA-MB-231): 867 nM (active) | GI50 (SK-MEL-5): 151 nM (active) | GI50 (IGROV-1): 1420 nM (inactive) | GI50 (MDA-N): 540 nM (active) | GI50 (HCC 2998): 1280 nM (inactive) | GI50 (RPMI-8226): 1890 nM (inactive) | GI50 (SK-MEL-2): 1620 nM (inactive) | GI50 (M14): 218 nM (active) | GI50 (COLO 205): 2070 nM (inactive) | GI50 (U-251): 353 nM (active) | GI50 (SF-268): 410 nM (active) | GI50 (RXF 393): 705 nM (active) | GI50 (SNB-75): 432 nM (active) | GI50 (Hs-578T): 1580 nM (inactive) | GI50 (MCF7): 262 nM (active) | GI50 (UACC-62): 541 nM (active) | GI50 (NCI/ADR-RES): 321 nM (active) | GI50 (EKVX): 2250 nM (inactive) | GI50 (HOP-92): 2040 nM (inactive) | GI50 (NCI-H23): 592 nM (active) | GI50 (T47D): 3970 nM (inactive) | GI50 (OVCAR-4): 351 nM (active) | GI50 (DU-145): 416 nM (active) | GI50 (HT-29): 2200 nM (inactive) | GI50 (K562): 446 nM (active) | GI50 (TK-10): 1400 nM (inactive) | GI50 (OVCAR-5): 1450 nM (inactive) | GI50 (MOLT-4): 2010 nM (inactive) | GI50 (OVCAR-3): 56.8 nM (active) | GI50 (SN12C): 532 nM (active) | GI50 (HOP-62): 57.9 nM (active) | GI50 (BT-549): 402 nM (active) | GI50 (NCI-H460): 109 nM (active) | GI50 (SF-295): 570 nM (active) | GI50 (SK-MEL-28): 552 nM (active) | GI50 (KM12): 350 nM (active) | GI50 (A549): 912 nM (active) | GI50 (Malme-3M): 697 nM (active) | GI50 (CAKI-1): 1460 nM (inactive) | GI50 (HCT-116): 197 nM (active) | GI50 (OVCAR-8): 407 nM (active) | GI50 (PC-3): 542 nM (active) | GI50 (SR): 221 nM (active) | GI50 (A498): 865 nM (active) | GI50 (LOX IMVI): < 10 nM (active)
